Paper PMC6198970, “Safety, efficacy, and dose response of the maturation inhibitor GSK3532795 (formerly known as BMS-955176) plus tenofovir/emtricitabine once daily in treatment-naive HIV-1-infected adults: Week 24 primary analysis from a randomized Phase IIb trial” (PLoS ONE, 2018)

What was measured:
Type in all cases: in vivo, HIV-1-infected adults
CD4+ T-cell count = test: Change from baseline in CD4+ T-cell count; details: EFV arm; Week 24
Text: The primary endpoint was determination of the proportion of participants with plasma HIV-1 RNA <40 copies/mL at Week 24 after treatment with GSK3532795 or efavirenz (EFV). Secondary endpoints included mean changes from baseline in CD4+ T-cell count and mean changes in the percentage of CD4+ T-cell count over time. Secondary safety endpoints included frequency of adverse events (AEs), serious AEs (SAEs), and AEs leading to discontinuation through Week 24. Further secondary endpoints included emergence of drug resistance. Exploratory endpoints included assessment of the impact of Gag polymorphisms on the efficacy of GSK3532795. […] In addition, though Gag A364 is essentially invariant across genotypes, it was included in the primary endpoint analysis since emergent resistance to GSK3532795 (both in vitro and in Phase IIa studies) mapped, in part, to the A364V change. Thus, our analysis at the Week 24 primary endpoint was limited to these four positions. Pharmacokinetic (PK) analyses were performed to evaluate treatment exposure and assess the dose proportionality of GSK3532795 when co-administered with tenofovir disoproxil fumarate (TDF)/emtricitabine (FTC).

[1] = Adverse events through Week 24
Procedure: (§1) Physical examinations, measurement of vital signs, and clinical laboratory evaluations were performed at Weeks 4, 8, 12, 16 and 24, and participants were closely monitored for AEs and SAEs throughout. AEs were classified according to MedDRA version 19.0. The severity and relationship to study drug was assessed by the local investigator.

[2] = Clinical laboratory evaluations
Procedure: as §1

HIV-1 [3] = test: Protocol-defined virologic failure and drug resistance testing (GenoSure MG, PhenoSense); details: EFV arm; through Week 24
Text: PDVF was defined as either: (1) confirmed HIV-1 RNA ≥40 copies/mL at any time after prior confirmed suppression to <40 copies/mL; or (2) a confirmed >1 log10 copies/mL above the nadir level. Genotypic information required for screening was generated using the GenoSure® MG assay; genotypic information and phenotypic observations during the treatment period were generated using the PhenoSense® combination resistance test.

HIV-1 [4] = test: Phase IIb study 205891: plasma HIV-1 RNA response at Week 24 (FDA snapshot, observed); details: Week 24, mITT; GSK3532795: range across 60, 120, 180 mg arms; EFV 600 mg; each + TDF/FTC
Procedure: 205891 was a Phase IIb, randomized, active-controlled, double-blind trial performed at 58 sites in 12 countries across South America, North America, South Africa, and Europe. Participants were randomized 1:1:1:1 to one of four treatment arms; GSK3532795 at doses of 60 mg, 120 mg or 180 mg once daily (QD), and one reference arm with EFV at a dose of 600 mg QD, each given in combination with TDF/FTC 300/200 mg QD.
Participants attended study visits at screening, on Day 1, and once every 4 weeks from Week 4 to Week 24 (telephonic visits were conducted at Week 20). Participants were expected to continue treatment, then, through Week 96, with visit intervals every 8–12 weeks. A post-dose safety follow-up visit was also conducted 12 weeks after treatment discontinuation. Plasma HIV-1 RNA levels were quantified by the Abbott RealTime HIV-1 assay.
The FDA-defined snapshot algorithm was used for primary endpoint efficacy assessment, using the last plasma HIV-1 RNA value in the pre-defined Week 24 visit window (± 6 weeks) to determine response. The modified intent-to-treat (mITT) population consisted of participants who received at least one dose of GSK3532795 or EFV. […]

[5] = GSK3532795: range across 60, 120, 180 mg arms, EFV 600 mg
[6] = GSK3532795 arms pooled, EFV 600 mg, abstract

## O=C1Nc2ccc(Cl)cc2[C@@](C#CC2CC2)(C(F)(F)F)O1 [EFV, efavirenz, reference compound]
CD4+ T-cell count
  Mean change from baseline in CD4+ T-cell count (SD): 134.7 (SD 151.70) cells/μL
[1]; EFV arm
  Mean time to onset of first diarrhea event: 73.0 days
[1]; EFV arm (shortest)
  Mean duration of first diarrhea event: 35.8 days
[1]; EFV arm vs GSK3532795 arms
  Incidence of dizziness relative to GSK3532795: ~10 fold
[1]; GSK3532795 120 mg (no action taken), EFV (led to discontinuation)
  SAE considered related to study drug: increased hepatic enzyme
[1]; [5]
  Grade 1–4-related abdominal pain: 0%
  Grade 1–4-related diarrhea: 4%
[1]; [6]
  Adverse events leading to discontinuation: 17%
  Serious adverse events: 9%
[1]; GSK3532795 arms pooled, EFV 600 mg, through Week 24
  Frequency of Grade 1–4-related AEs: 60%
[2]; EFV arm, baseline to Week 24
  Mean increase in total cholesterol: 17.6 mg/dL
  Mean increase in triglyceride levels: 41.1 mg/dL
[2]; one participant, discontinued
  Hepatic event attributed to EFV: several Grade 4 liver chemistry elevations
HIV-1 [3]
  Rate of protocol-defined virologic failure (PDVF): 2% (1/53)
HIV-1 [4]
  Participants achieving HIV-1 RNA <40 copies/mL: 77%
